Patent US10729680B2, “5-substituted 2-(morpholin-4-yl)-1,7-naphthyridines” (BAYER PHARMA AKTIENGESELLSCHAFT, priority 2016, dated 2020)

Legend:
HeLa cells = experiment: Proliferation assay (HeLa, crystal violet); type: cell-based; settings: Homo sapiens, 96 h, 4 days incubation, crystal violet staining, read-out: Inhibition of HeLa cell proliferation
Method: Human tumour cells were originally obtained from the American Type Culture Collection (ATCC), the Deutsche Sammlung von Mikroorganismen und Zellkulturen (DSMZ, German Collection of Microorganisms and Cell Cultures) or Epo GmbH, Berlin.
Adherently growing cells (HeLa, HeLa-MaTu-ADR, HT-144, Lovo, HT-29, NCI-H460, DU145, Caco2, B16F10) were plated out in a density of 1500-4000 cells/measurement point, depending on the rate of growth of the cell line, in a 96-well multititre plate in 200 μl of growth medium (DMEM/HAMS F12, 2 mM L-glutamine, 10% foetal calf serum). After 24 hours, the cells of one plate (zero plate) were dyed with crystal violet (see below), whereas the medium of the other plates was replaced with fresh culture medium (200 μl) to which the test substances were added in various concentrations (0 μM, and also in the range of 0.001-10 μM; the final concentration of the solvent dimethyl sulphoxide was 0.1 or 0.5%). The cells were incubated for 4 days in the presence of the test substances. Cell proliferation was determined by staining the cells with crystal violet: the cells were fixed at room temperature for 15 min by adding 20 μl/measurement point of an 11% strength glutaraldehyde solution. After washing the fixed cells three times with water, the plates were dried at room temperature. The cells were stained by adding 100 μl/measurement point of a 0.1% strength crystal violet solution (pH adjusted to pH 3 by adding acetic acid). After washing the cells three times with water, the plates were dried at room temperature. The dye was dissolved by adding 100 μl/measurement point of a 10% strength acetic acid solution. Absorbance was determined photometrically at a wavelength of 595 nm. The percentage change in cell growth was calculated by normalizing the measured values to the absorbance values of the zero plate (=0%) and the absorbance of the untreated (0 μM) cells (=100%). The IC50 values were determined by means of a four parameter fit.
Inhibition of proliferation of HeLa cells by compounds according to the present invention, determined as described above. All IC50 (inhibitory concentration at 50% of maximal effect) values are indicated in M, “n.t.” means that the compounds have not been tested in the respective assay.

[1] = target: full-length human ATR protein (ATR/ATRIP) (Homo sapiens (Human), UniProt Q13535); experiment: Binding Assay ATR (TR-FRET, tracer A displacement); settings: displacement of fluorescent tracer A from GST-ATR/ATRIP
Chain of full-length human ATR protein (ATR/ATRIP) (Q13535 other isoform, or with tags, fused parts or gaps): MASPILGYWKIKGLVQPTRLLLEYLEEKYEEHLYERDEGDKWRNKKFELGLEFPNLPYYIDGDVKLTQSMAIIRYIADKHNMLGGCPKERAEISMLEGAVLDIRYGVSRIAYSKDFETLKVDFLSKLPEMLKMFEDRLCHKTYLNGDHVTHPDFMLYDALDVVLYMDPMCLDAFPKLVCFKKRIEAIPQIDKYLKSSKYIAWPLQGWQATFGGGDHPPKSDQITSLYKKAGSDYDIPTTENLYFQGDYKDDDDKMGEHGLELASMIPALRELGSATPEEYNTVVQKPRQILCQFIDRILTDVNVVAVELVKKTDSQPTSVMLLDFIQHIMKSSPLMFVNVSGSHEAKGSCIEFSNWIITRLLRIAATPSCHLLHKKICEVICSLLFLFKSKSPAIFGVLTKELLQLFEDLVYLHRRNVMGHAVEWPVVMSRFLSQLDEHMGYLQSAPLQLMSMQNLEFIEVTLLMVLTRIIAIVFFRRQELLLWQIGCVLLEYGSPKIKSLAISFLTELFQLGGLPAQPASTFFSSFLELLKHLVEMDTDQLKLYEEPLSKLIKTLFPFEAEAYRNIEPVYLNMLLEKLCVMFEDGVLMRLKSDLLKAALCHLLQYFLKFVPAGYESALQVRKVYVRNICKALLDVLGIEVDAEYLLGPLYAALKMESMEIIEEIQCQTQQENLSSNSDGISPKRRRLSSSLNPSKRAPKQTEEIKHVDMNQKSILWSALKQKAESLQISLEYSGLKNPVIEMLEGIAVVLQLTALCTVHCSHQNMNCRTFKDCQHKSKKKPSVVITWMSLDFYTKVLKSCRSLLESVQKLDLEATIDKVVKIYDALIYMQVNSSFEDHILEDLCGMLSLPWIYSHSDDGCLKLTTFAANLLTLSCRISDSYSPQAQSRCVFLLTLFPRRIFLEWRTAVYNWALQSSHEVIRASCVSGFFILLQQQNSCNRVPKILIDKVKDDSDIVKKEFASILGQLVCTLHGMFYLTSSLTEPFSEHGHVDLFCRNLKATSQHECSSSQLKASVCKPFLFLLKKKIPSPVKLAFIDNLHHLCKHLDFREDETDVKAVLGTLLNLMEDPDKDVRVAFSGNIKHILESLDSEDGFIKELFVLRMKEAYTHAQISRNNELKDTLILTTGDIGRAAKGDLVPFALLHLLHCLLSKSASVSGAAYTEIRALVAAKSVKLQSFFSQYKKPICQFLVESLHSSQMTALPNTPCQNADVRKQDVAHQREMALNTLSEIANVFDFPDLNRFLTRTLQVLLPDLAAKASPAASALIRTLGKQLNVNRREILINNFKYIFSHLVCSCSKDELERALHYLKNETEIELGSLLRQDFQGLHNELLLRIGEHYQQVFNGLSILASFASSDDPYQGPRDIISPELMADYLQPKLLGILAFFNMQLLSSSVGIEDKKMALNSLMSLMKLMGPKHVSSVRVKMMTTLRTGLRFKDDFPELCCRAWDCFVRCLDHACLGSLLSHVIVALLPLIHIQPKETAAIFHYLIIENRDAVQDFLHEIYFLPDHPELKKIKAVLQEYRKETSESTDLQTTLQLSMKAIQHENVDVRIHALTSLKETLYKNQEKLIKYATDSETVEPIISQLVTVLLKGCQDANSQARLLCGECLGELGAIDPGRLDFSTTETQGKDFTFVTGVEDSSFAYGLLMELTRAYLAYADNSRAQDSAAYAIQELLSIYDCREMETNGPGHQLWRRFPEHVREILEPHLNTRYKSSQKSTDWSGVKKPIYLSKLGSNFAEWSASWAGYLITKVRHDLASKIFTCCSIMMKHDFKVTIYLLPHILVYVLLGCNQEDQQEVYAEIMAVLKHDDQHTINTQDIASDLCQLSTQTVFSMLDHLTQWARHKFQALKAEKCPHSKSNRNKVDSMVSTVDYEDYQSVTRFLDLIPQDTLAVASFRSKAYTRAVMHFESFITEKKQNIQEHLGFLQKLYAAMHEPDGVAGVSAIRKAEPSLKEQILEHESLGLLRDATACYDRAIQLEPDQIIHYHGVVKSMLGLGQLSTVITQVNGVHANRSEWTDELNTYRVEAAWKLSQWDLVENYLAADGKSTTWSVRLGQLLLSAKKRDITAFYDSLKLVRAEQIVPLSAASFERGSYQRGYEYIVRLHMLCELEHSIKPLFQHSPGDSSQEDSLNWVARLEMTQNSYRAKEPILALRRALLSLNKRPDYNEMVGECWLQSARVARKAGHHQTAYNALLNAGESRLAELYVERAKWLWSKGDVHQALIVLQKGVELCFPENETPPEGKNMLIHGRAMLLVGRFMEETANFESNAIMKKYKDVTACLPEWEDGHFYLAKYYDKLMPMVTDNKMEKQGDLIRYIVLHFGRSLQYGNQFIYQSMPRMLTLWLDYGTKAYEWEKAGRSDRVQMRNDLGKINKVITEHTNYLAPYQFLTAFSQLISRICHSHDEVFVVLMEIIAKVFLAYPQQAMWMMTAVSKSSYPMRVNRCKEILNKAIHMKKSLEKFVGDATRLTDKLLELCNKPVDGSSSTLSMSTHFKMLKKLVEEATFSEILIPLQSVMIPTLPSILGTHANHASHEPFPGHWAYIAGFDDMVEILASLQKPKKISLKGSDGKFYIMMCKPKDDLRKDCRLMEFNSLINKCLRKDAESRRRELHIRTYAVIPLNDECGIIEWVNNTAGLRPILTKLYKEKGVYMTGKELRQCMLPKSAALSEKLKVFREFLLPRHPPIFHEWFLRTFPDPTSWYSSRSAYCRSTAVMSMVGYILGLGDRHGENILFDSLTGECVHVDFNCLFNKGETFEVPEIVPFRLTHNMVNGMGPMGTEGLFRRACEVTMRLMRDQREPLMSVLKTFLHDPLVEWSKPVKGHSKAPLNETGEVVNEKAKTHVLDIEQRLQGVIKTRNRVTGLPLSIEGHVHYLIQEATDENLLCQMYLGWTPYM
Chain of full-length human ATR protein (ATR/ATRIP) (Q8WXE1 other isoform, or with tags, fused parts or gaps partner): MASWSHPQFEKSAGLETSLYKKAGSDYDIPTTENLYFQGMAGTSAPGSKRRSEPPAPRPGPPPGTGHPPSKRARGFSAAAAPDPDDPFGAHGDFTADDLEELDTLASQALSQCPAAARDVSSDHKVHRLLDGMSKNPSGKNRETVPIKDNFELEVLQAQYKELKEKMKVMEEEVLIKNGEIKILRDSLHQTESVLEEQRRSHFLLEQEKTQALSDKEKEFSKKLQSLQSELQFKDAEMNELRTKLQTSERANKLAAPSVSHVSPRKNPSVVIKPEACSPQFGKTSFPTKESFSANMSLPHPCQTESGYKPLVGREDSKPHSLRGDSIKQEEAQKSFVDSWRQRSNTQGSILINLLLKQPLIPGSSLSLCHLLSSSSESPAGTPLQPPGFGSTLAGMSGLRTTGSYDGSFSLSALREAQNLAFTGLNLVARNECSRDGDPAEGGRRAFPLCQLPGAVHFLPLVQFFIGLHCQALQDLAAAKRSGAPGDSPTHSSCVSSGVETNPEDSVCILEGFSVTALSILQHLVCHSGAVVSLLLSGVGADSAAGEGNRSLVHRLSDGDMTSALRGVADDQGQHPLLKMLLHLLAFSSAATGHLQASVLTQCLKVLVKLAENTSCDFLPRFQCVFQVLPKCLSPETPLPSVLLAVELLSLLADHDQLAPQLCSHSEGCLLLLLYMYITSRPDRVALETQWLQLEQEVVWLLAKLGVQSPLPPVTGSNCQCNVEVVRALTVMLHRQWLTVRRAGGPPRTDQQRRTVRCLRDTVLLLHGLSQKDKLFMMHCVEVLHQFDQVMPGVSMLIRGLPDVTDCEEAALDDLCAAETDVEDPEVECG
Excerpt: To determine of binding activity of the test compounds, full-length human ATR protein was expressed and purified together with ATRIP as described above. Furthermore, a fluorescently labelled compound (tracer A as described above) was used as a tracer molecule. Detection of the binding event of the tracer was achieved by time-resolved fluorescence energy transfer (TR-FRET). We used an anti-GST-Terbium antibody (CisBio) that binds to the GST-tag at the N-terminus of ATR-kinase. Excitation of Terbium with 337 nm light results in emission of fluorescent light with 545 nm. In case a tetrameric complex has formed (antiGST-Tb+GST-ATR+Strp2-ATRIP+tracer), part of the energy will be transferred from the Terbium to the fluorophore that itself emits light of 570 nm. Displacement of the fluorescent tracer by a test compound leads to a reduction of the TR-FRET-signal.
For the assay 50 nl of a 100-fold concentrated solution of the test compound in DMSO was pipetted into a black low volume 384 well microtiter plate (MTP, Greiner Bio-One, Frickenhausen, Germany). To prepare the ATR-working solution, ATR/ATRIP stock solution was diluted in assay buffer [50 mM HEPES (pH 7.0), 10 mM MgCl2, 1 mM DTT, 0.01% (w/v) Igepal, 0.01% (w/v) BSA] to 4.2 nM protein concentration (concentration may vary from lot to lot of protein preparation). AntiGST-Tb antibody was diluted to 4.2 nM. The ATR-working solution was incubated for 30 min at 22° C. prior to dispensing to pre-form the complex of antiGST-Tb+GST-ATR+ATRIP. Then, 3 μl of the ATR-working solution were added to the test compound and the mixture was incubated for 10 min at 22° C. to allow pre-binding of the test compounds to ATR/ATRIP. Then, 2 μl of a 100 nM solution of tracer A in assay buffer were added to the ATR-working solution. The resulting mixture was incubated for 30 min at 22° C. The measurement of the TR-FRET signal was performed in a standard HTRF-compatible MTP reader instrument (e.g. BMG Pherastar) by recording the fluorescence emissions at 545 nm and 570 nm after excitation at 337-350 nm. The ratio between emission at 570 nm divided by emission at 545 nm was calculated to give the well ratio. The experimental data (well ratios) were normalised by the following way: positive control contained ATR-working solution plus tracer A solution (=0% inhibition), the negative control contained all components except GST-ATR/ATRIP (=100% inhibition). Usually the compounds were tested on the same MTP in 11 different concentrations in the range of 20 μM to 0.1 nM (20 μM, 5.9 μM, 1.7 μM, 0.51 μM, 0.15 μM, 44 nM, 13 nM, 3.8 nM, 1.1 nM, 0.33 nM and 0.1 nM). The dilution series were prepared separately before the assay on the level of the 100 fold concentrated solutions in DMSO by serial 1:3.4 dilutions in duplicate values for each concentration. IC50 values were calculated by a 4 parameter fit using standard software (GraphPad prism or equivalent).

Structure (SMILES)	IC50 (HeLa cells) [nM]	IC50 [1] [nM]
Cc1cnc(-c2ccn[nH]2)c2nc(N3CCOC[C@H]3C)cc(OC(C)C)c12 [Example 1, 5-methyl-2-[(3R)-3-methylmorpholin-4-yl]-4-(propan-2-yloxy)-8-(1H-pyrazol-5-yl)-1,7-naphthyridine]	498	25.9
Cc1cnc(-c2ccn[nH]2)c2nc(N3CCOC[C@H]3C)cc(-c3ccnn3C)c12 [Example 2, 5-methyl-2-[(3R)-3-methylmorpholin-4-yl]-4-(1-methyl-1H-pyrazol-5-yl)-8-(1H-pyrazol-5-yl)-1,7-naphthyridine]	63.4	6.02
Cc1cnc(-c2ccn[nH]2)c2nc(N3CCOC[C@H]3C)cc(-c3cccnc3F)c12 [Example 3, 4-(2-fluoropyridin-3-yl)-5-methyl-2-[(3R)-3-methylmorpholin-4-yl]-8-(1H-pyrazol-5-yl)-1,7-naphthyridine]	154	8.13
Cc1nc(S(C)(=O)=O)ccc1-c1cc(N2CCOC[C@H]2C)nc2c(-c3ccn[nH]3)ncc(C)c12 [Example 4, 5-methyl-4-[2-methyl-6-(methylsulfonyl)pyridin-3-yl]-2-[(3R)-3-methylmorpholin-4-yl]-8-(1H-pyrazol-5-yl)-1,7-naphthyridine]	333	37.3
Cc1cnc(-c2ccn[nH]2)c2nc(N3CCOC[C@H]3C)cc(-c3ccc(C#N)c(F)c3)c12 [Example 48, 2-fluoro-4-{5-methyl-2-[(3R)-3-methylmorpholin-4-yl]-8-(1H-pyrazol-5-yl)-1,7-naphthyridin-4-yl}benzonitrile]	–	23.2
Cc1cnc(-c2ccn[nH]2)c2nc(N3CCOC[C@H]3C)cc(-c3ccc(F)nc3)c12 [Example 49, 4-(6-fluoropyridin-3-yl)-5-methyl-2-[(3R)-3-methylmorpholin-4-yl]-8-(1H-pyrazol-5-yl)-1,7-naphthyridine]	–	28.6
COc1ncccc1-c1cc(N2CCOC[C@H]2C)nc2c(-c3ccn[nH]3)ncc(C)c12 [Example 50, 4-(2-methoxypyridin-3-yl)-5-methyl-2-[(3R)-3-methylmorpholin-4-yl]-8-(1H-pyrazol-5-yl)-1,7-naphthyridine]	–	72.2
Cc1cnc(-c2ccn[nH]2)c2nc(N3CCOC[C@H]3C)cc(-c3ccc(C(N)=O)cc3)c12 [Example 52, 4-{5-methyl-2-[(3R)-3-methylmorpholin-4-yl]-8-(1H-pyrazol-5-yl)-1,7-naphthyridin-4-yl}benzamide]	–	30.2
Cc1cnc(-c2ccn[nH]2)c2nc(N3CCOC[C@H]3C)cc(-c3ccc(C(=O)N4CCCC4)cc3)c12 [Example 53, (4-{5-methyl-2-[(3R)-3-methylmorpholin-4-yl]-8-(1H-pyrazol-5-yl)-1,7-naphthyridin-4-yl}phenyl)(pyrrolidin-1-yl)methanone]	–	27.3
Cc1cnc(-c2ccn[nH]2)c2nc(N3CCOC[C@H]3C)cc(-c3ccc(C(=O)NCc4ccccc4)cc3)c12 [Example 54, N-benzyl-4-{5-methyl-2-[(3R)-3-methylmorpholin-4-yl]-8-(1H-pyrazol-5-yl)-1,7-naphthyridin-4-yl}benzamide]	–	34.6
Cc1cnc(-c2ccn[nH]2)c2nc(N3CCOC[C@H]3C)cc(-c3cccc(C(=O)N(C)C)c3)c12 [Example 55, N,N-dimethyl-3-{5-methyl-2-[(3R)-3-methylmorpholin-4-yl]-8-(1H-pyrazol-5-yl)-1,7-naphthyridin-4-yl}benzamide]	–	40.6
COCc1cccc(-c2cc(N3CCOC[C@H]3C)nc3c(-c4ccn[nH]4)ncc(C)c23)c1 [Example 56, 4-[3-(methoxymethyl)phenyl]-5-methyl-2-[(3R)-3-methylmorpholin-4-yl]-8-(1H-pyrazol-5-yl)-1,7-naphthyridine]	–	62.4
Cc1cnc(-c2ccn[nH]2)c2nc(N3CCOC[C@H]3C)cc(-c3ccc4c(ccn4C)c3)c12 [Example 57, 5-methyl-4-(1-methyl-1H-indol-5-yl)-2-[(3R)-3-methylmorpholin-4-yl]-8-(1H-pyrazol-5-yl)-1,7-naphthyridine]	–	50
Cc1cnc(-c2ccn[nH]2)c2nc(N3CCOC[C@H]3C)cc(-c3cncc4ccccc34)c12 [Example 58, 4-(isoquinolin-4-yl)-5-methyl-2-[(3R)-3-methylmorpholin-4-yl]-8-(1H-pyrazol-5-yl)-1,7-naphthyridine]	–	40
COc1cncc(-c2cc(N3CCOC[C@H]3C)nc3c(-c4ccn[nH]4)ncc(C)c23)c1 [Example 59, 4-(5-methoxypyridin-3-yl)-5-methyl-2-[(3R)-3-methylmorpholin-4-yl]-8-(1H-pyrazol-5-yl)-1,7-naphthyridine]	–	42.6
Cc1cnc(-c2ccn[nH]2)c2nc(N3CCOC[C@H]3C)cc(-c3cccc(OC(C)C)c3)c12 [Example 60, 5-methyl-2-[(3R)-3-methylmorpholin-4-yl]-4-[3-(propan-2-yloxy)phenyl]-8-(1H-pyrazol-5-yl)-1,7-naphthyridine]	–	132
Cc1ccncc1-c1cc(N2CCOC[C@H]2C)nc2c(-c3ccn[nH]3)ncc(C)c12 [Example 61, 5-methyl-2-[(3R)-3-methylmorpholin-4-yl]-4-(4-methylpyridin-3-yl)-8-(1H-pyrazol-5-yl)-1,7-naphthyridine]	–	8.6
Cc1cnc(-c2ccn[nH]2)c2nc(N3CCOC[C@H]3C)cc(-c3ccc(C(=O)NC(C)(C)C)cc3)c12 [Example 62, N-tert-butyl-4-{5-methyl-2-[(3R)-3-methylmorpholin-4-yl]-8-(1H-pyrazol-5-yl)-1,7-naphthyridin-4-yl}benzamide]	–	18.2
Cc1cnc(-c2ccn[nH]2)c2nc(N3CCOC[C@H]3C)cc(-c3ccc(C(=O)NC4CC4)cc3)c12 [Example 63, N-cyclopropyl-4-{5-methyl-2-[(3R)-3-methylmorpholin-4-yl]-8-(1H-pyrazol-5-yl)-1,7-naphthyridin-4-yl}benzamide]	–	7.87
COCc1ccc(-c2cc(N3CCOC[C@H]3C)nc3c(-c4ccn[nH]4)ncc(C)c23)cc1 [Example 65, 4-[4-(methoxymethyl)phenyl]-5-methyl-2-[(3R)-3-methylmorpholin-4-yl]-8-(1H-pyrazol-5-yl)-1,7-naphthyridine]	–	12.3
CNC(=O)c1ccc(-c2cc(N3CCOC[C@H]3C)nc3c(-c4ccn[nH]4)ncc(C)c23)cc1 [Example 66, N-methyl-4-{5-methyl-2-[(3R)-3-methylmorpholin-4-yl]-8-(1H-pyrazol-5-yl)-1,7-naphthyridin-4-yl}benzamide]	–	12.9
